Data reported in ChEMBL document CHEMBL4627285, “Multi-step parallel synthesis enabled optimization of benzofuran derivatives as pan-genotypic non-nucleoside inhibitors of HCV NS5B” (Bioorg Med Chem Lett, 2020).
In brackets after ≈: the same amount, converted by molar mass.

What was measured:
[1] = Solubility of compound in FASSIF at pH 6.5; format: physicochemical
[2] = Clearance in Wistar rat; format: ADME; conditions: in vivo
[3] = AUC in Wistar rat; format: ADME; conditions: in vivo
[4] = MRT in Wistar rat; format: ADME; conditions: in vivo
[5] = Volume of distribution in Wistar rat; format: ADME; conditions: in vivo

Row | solubility ([1]; FaSSIF, read-out: solubility) | clearance [2] | AUC [3] | MRT [4] | Vd [5] | solubility ([1]; simulated gi fluid) | Structure (SMILES)
1 | 70 µM (≈ 45 µg/mL) | 27.4 mL/min/kg | 1.06 µM·h | 2.84 h | 4.28 L/kg |  | CNC(=O)c1c(-c2ccc(F)cc2)oc2cc(N(C)S(C)(=O)=O)c(-c3ccc4nc(C)n(Cc5ccc(F)cc5)c(=O)c4c3)cc12
2 |  | 7.03 mL/min/kg | 3.92 µM·h | 18.1 h | 5.79 L/kg | 42 µM (≈ 25.8 µg/mL) | CNC(=O)c1c(-c2ccc(F)cc2)oc2cc(N(C)S(C)(=O)=O)c(-c3ccc4c(n3)-c3cc5c(F)cccc5n3CO4)cc12 [MK-8876]
